The values below come from patent US5296491A, “Pyrazolo[4,3-c]pyridines and their use as serotonin reuptake inhibitors” (Hoechst-Roussel Pharmaceuticals Inc., priority 1993, dated 1994).

For the assay, the system named is serotonin (5-hydroxytryptamine (5HT)) uptake. The assay can be described thus: [^3 H]-Serotonin Uptake in Rat Whole Brain and Hypothalamic Synaptosomes. The settings on record: [^3 H]-5HT 50 nM, 5 minutes, 37° C., log probit analysis. The format is biochemical, rat (male Wistar). The method, then:
[^3 H]-Serotonin Uptake in Rat Whole Brain and Hypothalamic Synaptosomes
This activity is determined in an assay which measures [^3 H]-serotoninuptake in rat whole brain and hypothalamic synaptosomes. The assay described below is used as a biochemical screen for potential antidepressants which block serotonin (5-hydroxytryptamine (5HT)) uptake.
Male CR Wistar rats (100-125 g)
1. Krebs-Henseleit Bicarbonate Buffer, pH 7.4 (KHBB):
Prepare a 1 liter batch containing the following salts.
Prior to use add to 200 ml, per assay:
The batch is aerated for 60 minutes with 95% 02 /5% CO2, the pH is checked to insure it is at 7.4±0.1, then add bovine serum albumin (Sigma cat# A-7906) 1 mg/ml.
Make a 4 liter batch, containing the following salts:
3. Sucrose solution: 0.32M sucrose containing 5 mM HEPES and 0.1 mM EDTA; pH to 7.3 using Tris base.
4. A 0.1 mM stock solution of serotonin creatinine SO4 is made up in 0.01N HCl. This is used to dilute the specific activity of the radiolabeled 5HT.
5. 5-[1,2-^3 H(N)]-Hydroxytryptamine creatinine sulfate (serotonin), specific activity 20-30 Ci/mmol, is used.
The final desired concentration of [^3 H]-5HT in the assay is 50 nM. The dilution factor is 0.8. The KHBB is made up to contain 62.5 nM of [^3 H]-5HT.
6. For most assays, a 0.5 mM stock solution of the test compound is made up initially in either 10 μl of glacial acetic acid, 100 μl DMSO or 10 μl of the recrystallization solvent, to which is added approximately 10 ml of distilled water. Compounds are initially screened in duplicate at 3 concentrations (10^-8, 10^-7 and 10^-6 M) made up in water.
The Percoll method for preparing synaptosomes has been modified from Nagy, A., Delgado-Escueta, A. V. J. Neurochem. 43, 1114 (1984) and Dunkley, P. R., Jarvie, R. E., Heath, J. W., Kidd, G. J., Rostas, J. A. P. Brain Research 372, 115 (1986). Male Wistar rats are decapitated and the brain rapidly removed. Whole brain (minus cerebellum) is weighed and homogenized in 15 volumes of ice cold Sucrose solution using a Potter-Elvejhem homogenizer. The following procedures are performed on ice. Homogenization should be done with 4-5 up and down strokes at medium speeds (setting 4.5 to 5) to minimize synaptosome lysis. The homogenate is centrifuged at 1000 g (3000 rpm, Sorvall SS-34 rotor) for 10 minutes at 0°-4° C. The supernatant is removed and approximately 10 ml per tube is carefully layered onto a discontinuous Percoll (Sigma cat# P-1644) gradient: 21% Percoll in Sucrose solution at the bottom (15 ml per tube) and 10% Percoll in the middle ( 10 ml; colored with a few drops of phenol red for visibility).
The Percoll gradient tubes are carefully placed into a Beckman SW-28 swinging bucket rotor and spun in a Beckman XL90 ultracentrifuge using the following program: speed, 11,000 rpm (15,000 g) for 30 minutes at 4° C.; slow acceleration and deceleration (acceleration setting 9; deceleration setting 3). Tubes are carefully removed, and the top layer and the top part of the middle (red) layer are discarded using a pasteur pipette. The synaptosomes are located in the white fluffy band at the interface between the 10% and 21% Percoll layers. This is carefully removed, placed in a centriguge tube, diluted with KHBB and spun at 21,000 g (13,000 rpm, Sorvall SS-34 rotor). The pellet (synaptosomes) is resuspended in KHBB (10 vol per gram original brain wet weight; 1 brain minus cerebellum weighs approximately 1.2 g; 2.5 brains are needed per typical assay).
200 μl of the tissue suspension are added to each of 24 tubes (at a time) containing the 20 μl of vehicle or drug on ice. Three minutes later, 800 μl of KHBB containing [^3 H]-5HT are added, and the tubes are vortexed. The rack containing the 24 tubes is moved from the ice bath to a water bath set at 37° C. The tubes are incubated for 5 minutes under 95% O2 /5% CO2.

Where a name gives a salt, the structure may show the parent alone.

The term IC50 denotes the concentration needed to halve the response being measured. A low value points to inhibition by little substance.

`Cc1ccccc1-c1nn(CCN)c2ccncc12` [1-(2-aminoethyl)-3-(2-methylphenyl)-1H-pyrazolo[4,3-c]pyridine] showed an IC50 of 870 nM.
For `NCCCCn1nc(-c2ccc(Cl)cc2Cl)c2cnccc21` [1-(4-aminobutyl)-3-(2,4-dichlorophenyl)-1H-pyrazolo[4,3-c]pyridine dimaleate], 95 nM corresponded to half-maximal inhibition (IC50).
Then `NCCn1nc(-c2ccccc2Br)c2cnccc21` [Example 2A, 1-(2-aminoethyl)-3-(2-bromophenyl)-1H-pyrazolo[4,3-c]pyridine dihydrochloride], with 1530 nM; and `NCCn1nc(-c2cccc(Cl)c2Cl)c2cnccc21` [Example 2CC, 1-(2-aminoethyl)-3-(2,3-dichlorophenyl)-1H-pyrazolo[4,3-c]pyridine fumarate], with 210 nM; and `NCCCn1nc(-c2ccc(Cl)cc2)c2cnccc21` [Example 2D, 1-[3-aminopropyl]-3-(4-chlorophenyl)-1H-pyrazolo[4,3-c]pyridine dimaleate], with 770 nM.
Next, `NCCCn1nc(-c2cccc(Cl)c2Cl)c2cnccc21` [Example 2DD, 1-(3-aminopropyl)-3-(2,3-dichlorophenyl)-1H-pyrazolo[4,3-c]pyridine fumarate]: 410 nM.
Then `NCCn1nc(-c2ccc(Cl)c(Cl)c2Cl)c2cnccc21` [Example 2EE, 1-(2-aminoethyl)-3-(2,3,4-trichlorophenyl)-1H-pyrazolo[4,3-c]pyridine fumarate], with 49 nM; and `NCCCn1nc(-c2ccc(Cl)c(Cl)c2Cl)c2cnccc21` [Example 2FF, 1-(3-aminopropyl)-3-(2,3,4-trichlorophenyl)-1H-pyrazolo[4,3-c]pyridine fumarate], with 23 nM; and `NCCn1nc(-c2ccc(Br)cc2)c2cnccc21` [Example 2H, 1-(2-aminoethyl)-3-(4-bromophenyl)-1H-pyrazolo[4,3-c]pyridine], with 940 nM.
As for `NCCCn1nc(-c2ccc(Cl)c(Cl)c2)c2cnccc21` [Example 2K, 1-(3-aminopropyl)-3-3,4-dichlorophenyl)-1H-pyrazolo[4,3-c]pyridine maleate], the 50% inhibitory concentration (IC50) was 240 nM.
Then `NCCn1nc(-c2ccc(Cl)c(Cl)c2)c2cnccc21` [Example 2L, 1-(2-aminoethyl)-3-(3,4-dichlorophenyl)-1H-pyrazolo[4,3-c]pyridine maleate], with 210 nM; and `NCCn1nc(-c2ccc(C(F)(F)F)cc2)c2cnccc21` [Example 2Q, 1-(2-aminoethyl)-3-(4-trifluoromethylphenyl)-1H-pyrazolo[4,3-c]pyridine maleate], with 1240 nM; and `NCCn1nc(-c2ccc(Cl)cc2Cl)c2cnccc21` [Example 2S, 1-(2-amimoethyl)-3-(2,4-dichlorophenyl)-1H-pyrazolo[4,3-c]pyridine fumarate], with 58 nM.
